In US9988430B2, “Stable GLP-1 based GLP-1/glucagon receptor co-agonists” (Novo Nordisk A/S, priority 2014, dated 2018):
pEC50: −log10 of the molar value. *1 amine or outer side, *2 acyl side, *3 side chain or, on linkers, in order; H or OH if unused. Where a SMILES comes first, the peptide text is derived from it. Bridges are numbered along the chain shown (N, C = ends). Roman numbers before positions name the chains, in order. [ ]: non-standard residue; d: D form. The star is where a group is joined. C18 diacid = O=C(O)CCCCCCCCCCCCCCCCC(=O)*; γGlu = O=C(O)[C@H](CCC(=O)[*:2])N[*:1]; Desaminohistidyl = O=C(CCc1c[nH]cn1)*; Ac4c = NC1(C(=O)O)CCC1; Aib = CC(C)(N)C(=O)O

Experiments:
human GLP-1 receptor = target: T1, human GLP-1 receptor (Homo sapiens, UniProt P43220); test: Assay (I)(a): GLP-1 receptor potency, CRE luciferase reporter gene assay in BHK cells; assay type: cell-based; conditions: BHK cells expressing human GLP-1 receptor, read-out: EC50 GLP-1R
T1 construct: expressed in transfected cells; host or cells: membranes of BHK cells, parent line BHKTS13, clone FCW467-12A
T1 sequence (P43220 24-463): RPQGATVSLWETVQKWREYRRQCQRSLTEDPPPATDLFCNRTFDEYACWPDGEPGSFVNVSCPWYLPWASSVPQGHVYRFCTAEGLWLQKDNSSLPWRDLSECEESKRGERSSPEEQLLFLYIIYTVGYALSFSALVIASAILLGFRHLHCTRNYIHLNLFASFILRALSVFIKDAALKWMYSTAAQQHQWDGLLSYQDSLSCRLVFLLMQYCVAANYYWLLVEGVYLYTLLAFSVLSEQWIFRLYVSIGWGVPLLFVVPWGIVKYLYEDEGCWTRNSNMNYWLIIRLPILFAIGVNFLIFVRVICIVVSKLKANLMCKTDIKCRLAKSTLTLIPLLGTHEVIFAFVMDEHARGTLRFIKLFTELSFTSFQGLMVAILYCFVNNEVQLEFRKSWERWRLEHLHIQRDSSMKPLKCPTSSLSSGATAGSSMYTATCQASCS
Summary of the method: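 BHK cells (clone FCW467-12A/KZ10-1), 5×10EE3/well, exposed 3 h at 37° C to compound at 1×10EE-13 to 1×10EE-6 M final in medium with 2% ovalbumin and 0.2% Pluronic F-68. Luciferase luminescence read; EC50 (pM) from four-parameter fit.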

[1] = Assay (V): chemical stability assessment by RP-UPLC; assay type: physicochemical; conditions: 14 days at 37° C. in phosphate buffer (pH 7.3)
Summary of the method: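 Lyophilized peptide dissolved in 8 mM phosphate pH 8.6, adjusted to pH 7.3, final 333 μM, held 14 days at 5° C and 37° C. Purity is main-peak area % by RP-UPLC with UV detection at 215 nm. Degradation is the 5° C minus 37° C purity difference divided by the 5° C purity.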

pEC50 (human GLP-1 receptor)	Chemical stability: Chemical degradation over 14 days at 37° C. [1] [%]	SMILES
10.92	0.4	CC[C@H](C)[C@H](NC(=O)[C@H](Cc1ccccc1)NC(=O)[C@H](CCC(=O)O)NC(=O)[C@H](CCCNC(=N)N)NC(=O)[C@H](C)NC(=O)[C@H](C)NC(=O)[C@H](CCCNC(=N)N)NC(=O)CNC(=O)[C@H](CCC(=O)O)NC(=O)[C@H](CC(C)C)NC(=O)[C@H](Cc1ccc(O)cc1)NC(=O)[C@H](CCCCN)NC(=O)[C@H](CO)NC(=O)[C@@H](NC(=O)[C@H](CC(=O)O)NC(=O)[C@H](CO)NC(=O)[C@@H](NC(=O)[C@H](Cc1ccccc1)NC(=O)[C@@H](NC(=O)CNC(=O)[C@H](Cc1c[nH]cn1)NC(=O)C1(NC(=O)CCc2c[nH]cn2)CCC1)[C@@H](C)O)[C@@H](C)O)C(C)C)C(=O)N[C@@H](C)C(=O)N[C@@H](Cc1c[nH]c2ccccc12)C(=O)N[C@@H](CC(C)C)C(=O)N[C@@H](CC(C)C)C(=O)N[C@@H](CCCCNC(=O)CNC(=O)[C@H](CO)NC(=O)[C@H](CCC(=O)O)NC(=O)CNC(=O)[C@H](CO)NC(=O)CC[C@H](NC(=O)CC[C@H](NC(=O)CCCCCCCCCCCCCCCCC(=O)O)C(=O)O)C(=O)O)C(=O)N[C@H](C(N)=O)[C@@H](C)O [Example 20, N^ε34-[2-[[(2S)-2-[[(2S)-4-carboxy-2-[[2-[[(2S)-2-[[(4S)-4-carboxy-4-[[(4S)-4-carboxy-4-(17-carboxyheptadecanoylamino)butanoyl]amino]butanoyl]amino]-3-hydroxypropanoyl]amino]acetyl]amino]butanoyl]amino]-3-hydroxypropanoyl]amino]acetyl]-[Imp7,Acb8,His9,Lys18,Arg23,Arg26,Leu33,Thr35]-GLP-1-(7-35)-peptide amide] (I: Desaminohistidyl-[Ac4c]HGTFTSDVSKYLEGRAAREFIAWLLKT-NH2 / II: {C18 diacid-γGlu-γGlu}-SGESG; amide I:27-II:C)
11.22	0.0	CC[C@H](C)[C@H](NC(=O)[C@H](Cc1ccccc1)NC(=O)[C@H](CCC(=O)O)NC(=O)[C@H](CCCNC(=N)N)NC(=O)[C@H](C)NC(=O)[C@H](C)NC(=O)[C@H](CCC(N)=O)NC(=O)[C@H](CCC(=O)O)NC(=O)[C@H](CCC(=O)O)NC(=O)[C@H](CC(C)C)NC(=O)[C@H](Cc1ccc(O)cc1)NC(=O)[C@H](CCCNC(=N)N)NC(=O)[C@H](CO)NC(=O)[C@@H](NC(=O)[C@H](CC(=O)O)NC(=O)[C@H](CO)NC(=O)[C@@H](NC(=O)[C@H](Cc1ccccc1)NC(=O)[C@@H](NC(=O)CNC(=O)[C@H](Cc1c[nH]cn1)NC(=O)C(C)(C)NC(=O)CCc1c[nH]cn1)[C@@H](C)O)[C@@H](C)O)C(C)C)C(=O)N[C@@H](C)C(=O)N[C@@H](Cc1c[nH]c2ccccc12)C(=O)N[C@@H](CC(C)C)C(=O)N[C@@H](CC(C)C)C(=O)N[C@@H](CCCCNC(=O)CNC(=O)[C@H](CO)NC(=O)[C@H](CCC(=O)O)NC(=O)CNC(=O)[C@H](CO)NC(=O)CC[C@H](NC(=O)CC[C@H](NC(=O)CCCCCCCCCCCCCCCCC(=O)O)C(=O)O)C(=O)O)C(=O)N[C@H](C(N)=O)[C@@H](C)O [Example 7, N^ε34-[2-[[(2S)-2-[[(2S)-4-carboxy-2-[[2-[[(2S)-2-[[(4S)-4-carboxy-4-[[(4S)-4-carboxy-4-(17-carboxyheptadecanoylamino)butanoyl]amino]butanoyl]amino]-3-hydroxypropanoyl]amino]acetyl]amino]butanoyl]amino]-3-hydroxypropanoyl]amino]acetyl]-[Imp7,Aib8,His9,Arg18,Glu22,Arg26,Leu33,Thr35]-GLP-1-(7-35)-peptide amide] (I: Desaminohistidyl-[Aib]HGTFTSDVSRYLEEQAAREFIAWLLKT-NH2 / II: {C18 diacid-γGlu-γGlu}-SGESG; amide I:27-II:C)
